Results published in paper PMC8658795 (2021).

System: DNA duplex (DNA, duplex) CAATCGGATCGAATTCGATCCGATTG
Assay: fluorescent intercalator displacement
Settings: K+ (50 mM KCl, 10 mM KH2PO4); 1 mM K2EDTA, pH 7.4, room temperature; thiazole orange 0.5 μM displaced (Kf 3 × 10^6 M^-1); duplex 0.25 μM

| Kb | Compound |
| --- | --- |
| (1.24 ± 0.07) × 10^6 M^-1 | NN1C(=O)c2c(c3c4ccccc4n([C@@H]4OC[C@H](O)[C@H](O)[C@H]4O)c3c3[nH]c4ccccc4c23)C1=O |
| (2.52 ± 0.4) × 10^5 M^-1 | O=C(NN1C(=O)c2c(c3c4ccccc4n([C@H]4OC[C@@H](O)[C@H](O)[C@H]4O)c3c3[nH]c4ccccc4c23)C1=O)c1ccccn1 |
